# Experimental data from EP3959993B1, “METHOD FOR SOLVENT FREE PRODUCTION OF AROMA CONCENTRATES” (Symrise AG, priority 2020, dated 2022).
# Assays:
# [1] = theoretical solubility, values known in the literature; cited from earlier work
# [2] = Second oil phase obtained by adding NaCl to the water phase (Example 4); assay type: physicochemical; settings: after separating oil phases I and II
# Procedure: Cross linked polystyrene was used as adsorbent material. The volume flux for loading the adsorbent was 300 ml/min.
# The adsorbent was heated to 150 °C, the temperature of the applied water steam was 160 °C.
# The water steam flux was 10 g/min and was applied for 100 min.
# The oil and water phases were separated.
# A second oil phase was separated and was collected.
# [3] = Influence of the amount of NaCl on the distribution between oil phase and water phase (Example 5); assay type: physicochemical
Molecule,Solubility in water (%) [1],Loss in the water phase [2],Distribution in [%] between oil phase and water phase after condensation: Oil phase ([3]; NaCl 0%),Distribution in [%] between oil phase and water phase after condensation: Water phase ([3]; NaCl 0%),Distribution in [%] between oil phase and water phase after condensation: Oil phase ([3]; NaCl 27.8 %),Distribution in [%] between oil phase and water phase after condensation: Water phase ([3]; NaCl 27.8 %),Distribution in [%] between oil phase and water phase after condensation: Oil phase ([3]; NaCl 41.67%),Distribution in [%] between oil phase and water phase after condensation: Water phase ([3]; NaCl 41.67%),Distribution in [%] between oil phase and water phase after condensation: Oil phase ([3]; NaCl 55.56 %),Distribution in [%] between oil phase and water phase after condensation: Water phase ([3]; NaCl 55.56 %),Distribution in [%] between oil phase and water phase after condensation: Oil phase ([3]; NaCl 69.44 %),Distribution in [%] between oil phase and water phase after condensation: Water phase ([3]; NaCl 69.44 %),Distribution in [%] between oil phase and water phase after condensation: Oil phase ([3]; NaCl 83.33 %),Distribution in [%] between oil phase and water phase after condensation: Water phase ([3]; NaCl 83.33 %)
[Cl-].[K+] [Potassium chloride],34.7%,,,,,,,,,,,,,
O=P([O-])([O-])OP(=O)([O-])OP(=O)([O-])[O-].[Na+].[Na+].[Na+].[Na+].[Na+] [Triphosphate (Na)],14.5%,,,,,,,,,,,,,
CCOC(C)=O [ethyl acetate],,"54,8%",10.4%,89.6%,20.8%,79.2%,30.3%,69.7%,33.2%,66.8%,38.9%,61.1%,45.2%,54.8%
CC(=O)OCCc1ccccc1 [phenylethyl acetate],,"0,0%",70.8%,29.2%,96.9%,3.1%,98%,2%,100%,0%,100%,0%,100%,0%
CCC(C)COC(C)=O (centres unmarked) [2-methyl butyl acetate],,"0,2%",79.3%,20.7%,97.1%,2.9%,98.6%,1.4%,99.2%,0.8%,99.7%,0.3%,99.8%,0.2%
2-methyl propanol,,"49,8%",17.1%,82.9%,29.7%,70.3%,41%,59%,42.8%,57.2%,45.9%,54.1%,50.2%,49.8%
CCCCCC(=O)O [caproic acid],,"2,1%",43.5%,56.5%,84.9%,15.1%,91.5%,8.5%,94.9%,5.1%,97%,3%,97.9%,2.1%
CC(=O)OCC(C)C [2-methylpropyl acetate],,"1,0%",69.3%,30.7%,92.1%,7.9%,96.2%,3.8%,97.5%,2.5%,98.6%,1.4%,99%,1%
